Data from patent US10273226B2, “Pyrazolyl-heteroarylamides as pesticides” (Bayer Animal Health GmbH, priority 2014, dated 2019).

What was measured:
Assay type in all cases: in vivo
Spodoptera frugiperda = Spodoptera frugiperda spray test; settings: application rate 100 g/ha; caterpillars; after 7 days
How it was run: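 Maize leaf discs were sprayed with compound formulated in solvent plus water containing 1000 ppm emulsifier, dried, then infested with Spodoptera frugiperda caterpillars. Efficacy in % mortality was scored after 7 days (100% all killed, 0% none).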

[1] = tested on: Anopheles gambiae strain RSPH (homozygot kdr); test: Anopheles test (ANPHGB surface treatment); settings: application rate 100 mg/m^2, exposure 30 minutes, 24 hours after contact, read-out: efficacy (mortality in %)
Description: Anopheles Test (ANPHGB Surface Treatment)
Solvent: acetone+2000 ppm rapeseed oil methyl ester (RME)
To produce an appropriate active ingredient formulation, the active ingredient is dissolved in the solvent (2 mg/ml). The active ingredient formulation is pipetted onto a glazed tile and, after it has dried off, adult mosquitoes of the species Anopheles gambiae strain RSPH (homozygot kdr) are placed onto the treated tile. The exposure time is 30 minutes.
24 hours after contact with the treated surface, mortality in % is determined. 100% means that all the mosquitoes have been killed; 0% means that none of the mosquitoes have been killed.

Lucilia cuprina = Lucilia cuprina test; settings: application rate 100 ppm; L1 larvae; after 2 days
How it was run: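 About 20 L1 larvae placed in vessels with minced horsemeat treated with compound (DMSO concentrate diluted in water) at the desired concentration. Kill (%) scored after 2 days; 100% means all larvae dead, 0% none.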

Rhipicephalus sanguineus = Rhipicephalus sanguineus in vitro contact test with adult brown dog ticks; settings: application rate 5 μg/cm^2 (500 g/ha); after 48 h; ticks dead or moribund
How it was run: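 Test tubes (25 ml) were coated by dissolving active ingredient in acetone p.a., diluting to the required concentration, and spreading 250 μl over the inner walls and base on an orbital shaker at 30 rpm for 2 h. Once dry, 5-10 adult Rhipicephalus sanguineus were added, and tubes were capped with perforated lids and kept horizontal in darkness at room temperature. At 48 h, ticks were knocked down and heated at 45-50° C. for up to 5 min. Those unable to climb away were counted dead or moribund, and efficacy ran from 0% to 100%.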

Tetranychus urticae = Tetranychus urticae spray test, OP-resistant; settings: application rate 100 g/ha; after 6 days
How it was run: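 Bean leaf discs (Phaseolus vulgaris) carrying all stages of OP-resistant mites are sprayed with compound formulated in solvent and emulsifier-containing water. Efficacy (% mites killed) is scored after 6 days.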

## Cn1nc(C(F)(F)C(F)(F)F)c(C(F)(F)F)c1-n1cc(-c2cccc(NC(=O)c3ccncc3)c2)cn1 [Example 1-001, N-{3-[2′-Methyl-5′-(pentafluoroethyl)-4′-(trifluoromethyl)-2′H-1,3′-bipyrazol-4-yl]-phenyl}isonicotinamide]
Spodoptera frugiperda
  efficacy: 100%
[1]
  mortality at 100 mg/m2: 90 to 100%
Lucilia cuprina
  efficacy (kill in %): 100%
Rhipicephalus sanguineus
  efficacy: 100%
Tetranychus urticae
  efficacy: 100%
